Results taken from patent US20030103993A1, “HLA-DR2 binding peptides” (Corixa Corporation, priority 2000, published 2003).

How the values were obtained:
[1] = test system: SS8T cloned human T cells; test: T cell receptor occupancy assay: γ-IFN production by SS8T T cell clone (ELISA); assay type: cell-based; settings: SS8T cells restricted to HLA-DR2 and MBP 84-102; 48 h incubation; text cites FIG. 2
Experimental: The Herpes saimiri virus (HSV) transformed SS8T human T cell clone was a generous gift from Dr. H. Wekerle. The clone is restricted to DR2 (DRB5*0101) and MBP (84-102) peptide. It was cultured in RPMI 1640 medium supplemented with 2 mM L-glutamine, 100 units/ml penicillin, 100 μg/ml streptomycin, 10% fetal bovine serum and 50 units/ml human recombinant IL-2 (rIL-2) at 37° C. (culture medium). Every alternate day, cells were transferred to fresh culture medium. Various peptides at different concentrations were incubated with the cells in a microtiter tissue culture plate at a density of 20,000 cells/200 μl/well in the absence of rIL-2. After 48 h of incubation at 37° C., the culture fluids were collected from each well to test for γ-IFN and TNF-β cytokines. The detection of γ-IFN was by Ab ELISA as described recently (Arimilli et a.l, J. Immunol. Methods 212:49-59 (1998)). For the detection of TNF-β, Nunc Maxisorb 96-well plates were coated with anti-human TNF-β mAb at a concentration of 0.5 μg/well and incubated at 4° C. overnight. The wells were blocked with 0.1% bovine serum albumin, and samples were incubated at RT for 2 h. A standard curve was generated by using recombinant human TNF-β with a dilution range of 500 to 0.01 ng/ml. […] The reaction was stopped by 2N sulfuric acid at 5 mm, and the absorbance was measured at 450 nm.

[2] = test system: SS8T cells; test: T cell metabolic acidification rate (Cytosensor microphysiometer); assay type: cell-based, human
Excerpt: Freshly cultured SS8T cells were immobilized into microphysiometer cell capsules as described earlier (Arimilli et al., J. Immunol. Methods 212:49-59 (1998)) using low-melt agarose (Molecular Devices Corp., Sunnyvale, Calif.). Briefly, cells were rested from IL-2 pulsing for 2 days. Cells were counted and suspended in a serum-free loading medium (low-buffering RPMI 1640 containing 10% fatty acid free, endotoxin-free BSA). Cells were collected by centrifugation and resuspended at a concentration of 3×10^5 T cells per 7.5 μl of loading medium. Low-melt agarose (Molecular Devices Corp.), melted and stored at 37° C., was added to the suspended cells to a concentration of 2.5 μl per 7.5 μl. Ten μl of the agarose/cell mixture was immediately spotted into the center of the cell capsule cups (Molecular Devices Corp.) held in a 12 well culture plate. After 5 minutes, 2 ml of loading medium was placed in the capsule cup over the solidified agarose and a membrane insert was placed over the cells. The assembled cell capsule was loaded in the Cytosensor chamber at 37° C. and perfused at 50 μl per min with low-buffering RPMI 1640 medium containing […] but no added HEPES or bicarbonate. […]

[3] = target: T1, HLA-DR2 (Homo sapiens, UniProt P01903+Q30154); test: Peptide/DR2 competitive binding assay (biotinylated MBP 83-102Y83 vs test peptide, ELISA)
T1 construct: DR2 molecules were purified from the human EBV-B cell line; endogenous in cells; host or cells: human EBV-B cell line
Experimental: DR2 molecules were purified from the human EBV-B cell line. […] Mab L243 (IgG2a) affinity chromatography. A 10 μM solution of affinity purified DR2 was biotinylated with 200 μM Biotin-XX-NHS in 0.25 NaHCO3/0.2% NP-40 for 1 hr. at room temperature.
The ability of peptides to bind HLA-DR2 was estimated by competitive peptide binding assay. Purified HLA-DR2 (2 μg/ml) was incubated with 50-fold excess Bt-MBP 83-102Y83 peptide in the presence or absence of test peptides. The ratio of Et-MEP 831-2Y83 peptide to the test peptide was 1:1. After incubation at 37° C. for 48 hrs, the complex was added to the wells coated with anti-DR antibody and incubated for 2 hours at 37° C. The wells were then washed and alkaline phosphatase-linked streptavidin was added and the reaction incubated for 1 hour at 37° C. The excess streptavidin was washed and the ELISA color was developed by using p-nitrophenol phosphate in 0.1M diethanolamine as substrate. The test peptide was considered to be the stronger binding peptide if the O.D was less than the O.D of Bt 83-102Y83 peptide in the absence of the test peptide.

## Ac-GFGYGGRASDYKSAHKGFKG (Ac-GFGYGGRASDYKSAHKGFKG-NH2) [MBP 124-143 peptide, myelin basic protein peptide 124-143, control]
[1]
  γ-IFN production by SS8T cells exposed to peptide: did not show any increase in γ-IFN production

## Ac-YDENPVVHEKMVTPRTPP (Ac-YDENPVVHEKMVTPRTPP-NH2) [MBP 83-102 peptide, myelin basic protein peptide 83-102 with Y at position 83]
[2]; SS8T cells immobilized in agarose, exposed to peptide, FIG. 3
  stimulation of SS8T cells (extracellular acidification rate): increased level of extracellular acidification rate within 10 minutes
[1]
  γ-IFN production by SS8T cells exposed to peptide: specific increase in γ-IFN production

## GHIKSSISFMGM [peptide #1]
[2]; competition with MBP peptide, increasing concentrations
  activation of the MBP 83-102 specific T cells in the presence of increasing concentrations of test peptide: decreasing activation of the hybridomas in a competitive manner
[3]; purified DR2, 50-fold molar excess biotinylated MBP 83-102Y83, increasing concentrations of test peptide, FIG. 1
  inhibition of the binding of biotinylated MBP 83-102 to DR2: to the same extent as the unbiotinylated MBP 83-102 peptide
[3]; synthesized peptide, compared with MBP 84-102 peptide
  affinity of binding to DR2 relative to MBP peptide: comparatively in the same range as that of the MBP 83-102 peptide
